From US4897344A, “Method of hardening gelatin” (Fuji Photo Film Co., Ltd., priority 1987, dated 1990)
Converted amounts (≈) assume the structure as drawn.

Assay: Solubility in water at 25 °C (weight recovered undissolved and weight dissolved after stirring 5 hours)
Assay type: physicochemical
Details: for Weight Recovered: undissolved portion, 10 grams in 100 ml of water, 5 hours stirring; for solubility thermodynamic at 5 h: water, head prints 10 ml, text prints 100 ml
Procedure: Ten grams of Compound 1 of this invention and 10 grams of Comparative Compound (I) disclosed (as illustrative compound 3) in Japanese Patent Application No. 41221/78 for comparative purposes were each separately dissolved in 100 ml of water and stirred for 5 hours while maintaining a temperature of 25° C. The undissolved portion was recovered by filtration and the weight of the recovered material was determined after drying. Comparative Compound (I)
The weights of the compounds recovered and the amounts dissolved in 100 ml of water at 25° C. calculated on the basis of the weights recovered are shown in Table 1.

Structure (SMILES) | Weight Recovered [grams] | solubility thermodynamic at 5 h [mg/mL] | solubility in water relative to Comparative Compound (I) (in words)
C=CS(=O)(=O)CC(=O)NCCNC(=O)CS(=O)(=O)C=C [Comparative Compound (I), reference compound] | 8.0 | 20 (≈ 61.7 mM) | –
C=CS(=O)(=O)C(CCc1ccc(S(=O)(=O)O)cc1)S(=O)(=O)C=C [Compound 1] | 0 | > 100 | much better solubility in water
